Series [1] addresses human α5β3γ2 receptor (α5-GABAA receptor) (Homo sapiens (Human), UniProt P18507+P31644). Put plainly: Radioligand (3H-flunitrazepam) competition binding assay, BZD site. Particulars: 3H-flunitrazepam 1 nM; HEK293 membranes expressing human α5β3γ2. Summed up:
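Membranes from HEK293 cells stably expressing human α2β3γ2 or α5β3γ2 (5 μg protein/well) incubated 1 h at room temperature with 1 nM ^3H-flunitrazepam and 8-point 4-fold compound dilutions; nonspecific binding defined with 10 μM flumazenil. Filter-bound radioactivity counted; Ki derived from fitted IC50.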

Series [2] addresses human α2β3γ2 receptor (α2-GABAA receptor) (Homo sapiens (Human), UniProt P18507+P47869). Put plainly: Radioligand (3H-flunitrazepam) competition binding assay, BZD site; α2 vs α5 binding selectivity. Particulars: ratio of Ki at α2β3γ2 to Ki at α5β3γ2. The text has this:
α, β and γ subunits are essential for the formation of a complete functional GABAA receptor. In this example, HEK293 cell strains stably expressing human α5-GABAA receptor (comprising α5β3γ2 subunit) and α2-GABAA receptor (comprising α2β3γ2 subunit) were constructed and screened, respectively, by liposome transfection method (Felgner, P. L., et al., Proceedings of the National Academy of Sciences, 1987, 84:7413-7417). The specific subunit protein sequences are as follows: α5 subunit (protein sequence can be found in GenBank accession number: NM_000810.3); α2 subunit (protein sequence can be found in GenBank accession number: NM_000807.4); β3 subunit (protein sequence can be found in GenBank accession number: NM_000814.5); γ2 subunit (protein sequence can be found in GenBank accession number: NM_000816.3).
The above cell lines were subcultured. Amplification of α5β3γ2-HEK293 and α2β3γ2-HEK293 cells was used to test the affinity of the compounds to benzodiazepine site (BZD) of the GABAA receptor. During the passage of α5β3γ2-HEK293 cells, some of the suspended cells were spread on a glass slide pretreated with Poly-D-Lysine for electrophysiological testing.
Flunitrazepam is a non-specific reagent that binds to the BZD site efficiently. The affinity of the compounds to the BZD sites of the human α5β3γ2 and α2β3γ2 receptors can be determined by competing the compound with ^3H-flunitrazepam (isotope ^3H-labeled flunitrazepam) for binding to these two receptors.
Membrane preparation: HEK293 cells stably expressing human α5β3γ2 receptor or α2β3γ2 receptor were collected, suspended in 50 mM Tris-HCl buffer (pH=7.4), homogenized on ice by a homogenizer for 20 seconds 10 times, and centrifuged at 4° C., 1000 g for 10 min. The supernatant was collected, and the above steps were repeated. The supernatant was centrifuged (33800 g; centrifuge purchased from Thermo, rotor model: A27-8×50) at 4° C. for 60 min, and the precipitate was resuspended in Tris buffer (50 mM Tris-HCl, 10 mM MgCl2, 0.5 mM EDTA, 10% glycerol). The precipitate was the cell membrane. Protein content was determined by BCA (Bicinchoninic Acid) method (BCA kit from Pierce (Annoron)). The cell membrane was prepared into 1 ml aliquot and stored at −80° C.
Radioligand competition binding assay: the assay was carried out in a 200 μL system (96-well plate from Agilent) with 100 μL of cell membrane. The concentration of ^3H-flunitazepam (from PerkinElmer, lot: NET567250 UC) was 1 nM and the concentration of test compound was in the range 1×10^−5-10^−6 M. Flumazenil (from Tocris; lot: 1318) was used as a control. 1 μL of 2 mM flumazenil (final concentration 10 μM) was added to the Low signal control well (Low control, LC) and 1 μL of DMSO (from Sigma aldrich, lot: 472301) was added to the High signal control well (High control, HC). The final target membrane protein concentration was 5 μg/well. All test compound sample stocks were 10 mM DMSO solutions. The working concentration of the samples is to dilute all samples with DMSO to 0.2 mM, and then perform 4-fold continuous gradient dilution for a total of 8 concentration gradients. The 96-well plate was sealed with a plate sealing membrane and then incubated on a shaker at room temperature for 1 hour. Meanwhile, GF/C filter plate was soaked with a plate soaking buffer (0.3% PEI, polyethyleneimine, purchased from Sigma aldrich, model: P314, stored at 4° C.) for at least 0.5 hours. After completion of binding incubation, the cells were collected with a cell collector onto the GF/C filter plate and washed four times with a plate washing buffer (50 mM Tris-HCl, pH 7.4, stored at 4° C.). […]

A short description of series [3]: Thermodynamic solubility in simulated intestinal fluid (FaSSIF). It is filed as physicochemical. Particulars: 37° C., 1000 rpm. Here is the method: 50 mM of phosphate buffer, pH=7.4:0.39 g of NaH2PO4·2H2O, 1.4025 g of Na2HPO4 were weighed, placed into an Erlenmeyer flask, dissolved with the addition of 240 ml of water, homogenously mixed, adjusted to pH 7.4 with 10 M NaOH solution, transferred into a 250 ml volumetric flask and diluted with water to the scale.
Simulated intestinal fluid FaSSIF: 54.76 mg of FaSSIF-V2 (Biorelevant, batch. V2FAS-0619-A, lot. V2FAS01) was weighed, and added to 15 ml of buffer, and after dissolution, the solution was made up to 30 ml and left to stand at room temperature for 1 hour for use.
Waters e2695 HPLC high performance liquid chromatography, Mettler XSE105 analytical balance.
Stock solution containing 10 mM of each test compound was formulated using DMSO, diluted into […] standard curve solution using diluent (ACN:PB buffer with a volume ratio of 50:50), and tested by HPLC to obtain a standard curve of concentration vs peak area of each test compound.
Thermodynamic solubility in simulated intestinal fluid (TS in FaSSIF). About 0.3 mg of each sample (test compound) was weighed, added into 1.5 mL of FaSSIF solution, two samples in parallel, shaken at 1000 rpm and 37° C. for 4 hours, and filtered, 1 mL of primary filtrate was discarded, then 400 μL of subsequent filtrate was taken, and tested by using a high performance liquid chromatograph (UV).

Where [4] appears, read: simulated intestinal fluid (FaSSIF), thermodynamic from solid.

≈ marks a conversion by molar mass, not a printed value.

`Cc1onc(-c2ccc(F)cc2)c1COc1ccc(-c2nnc3n2CCS(=O)(=O)C3)cn1` [Compound 7, 3-(6-((3-(4-fluorophenyl)-5-methylisoxazol-4-yl)methoxy)pyridin-3-yl)-5,6-dihydro-8H-[1,2,4]triazolo[3,4-c][1,4]thiazine 7,7-dioxide]: in series [1], the Ki (usually a measure of affinity in units of concentration, obtained from inhibition or displacement) was 2.14 nM. Further, in series [2], the “Selectivity α2 ki/α5 ki” value turned out to be 11.01 folds. Besides, in series [3] (setting [4]), the thermodynamic solubility – broadly, solubility found after equilibrating the solid with the medium – at 4 h is 157 µg/mL (≈ 344 µM).

In turn, `Cc1onc(-c2ccc(F)cc2)c1COc1ccc(N2CCN3CCNC(=O)C3C2)nn1` (stereo not drawn) [Compound 10, 8-(6-((3-(4-fluorophenyl)-5-methylisoxazol-4-yl)methoxy)pyridazin-3-yl) hexahydro-2H-pyrazino[1,2-a]pyrazin-1 (6H)-one] gave a Ki in series [1] of 3.2 nM. Also, the “Selectivity α2 ki/α5 ki” value in series [2] was 63.3 folds. Besides, the solubility (thermodynamic) at 4 h in series [3] (setting [4]) is 19.4 µg/mL (≈ 44.1 µM).

As for `Cc1onc(-c2ccc(F)cc2)c1COc1ccc(-c2nnc3n2CCOC3)cn1` [Compound 17, 3-(6-((3-(4-fluorophenyl)-5-methylisoxazol-4-yl)methoxy)pyridin-3-yl)-5,6-dihydro-8H-[1,2,4]triazolo[3,4-c][1,4]oxazine], the inhibitory constant (Ki) in series [1] was 2.59 nM. Besides, the “Selectivity α2 ki/α5 ki” value in series [2] amounted to 23.1 folds. The molecule further had a solubility (thermodynamic) at 4 h in series [3] (setting [4]) of 33.1 µg/mL (≈ 81.2 µM).

The molecule `Cc1onc(-c2ccc(F)cc2)c1COc1ccc(-c2nnc3n2CCOC3)nn1` [Compound 18, 3-(6-((3-(4-fluorophenyl)-5-methylisoxazol-4-yl)methoxy)pyridazin-3-yl)-5,6-dihydro-8H-[1,2,4]triazolo[3,4-c][1,4]oxazine] showed a Ki in series [1] of 0.32 nM. Besides, the “Selectivity α2 ki/α5 ki” value in series [2] is 41.4 folds.

`Cc1onc(-c2ccc(F)cc2)c1COc1cnc(-c2nnc3n2CCOC3)cn1` [Compound 19, 3-(5-((3-(4-fluorophenyl)-5-methylisoxazol-4-yl)methoxy)pyrazin-2-yl)-5,6-dihydro-8H-[1,2,4]triazolo[3,4-c][1,4]oxazine] came in with a Ki in series [1] of 1.62 nM. The “Selectivity α2 ki/α5 ki” value in series [2] came to 93.8 folds. This molecule also came in with a solubility (thermodynamic) at 4 h in series [3] (setting [4]) of 15.2 µg/mL (≈ 37.3 µM).

Turning to `Cc1onc(-c2ccc(F)cc2)c1COc1cnc(-c2nnc3n2CCC3)cn1` [Compound 23, 4-(((5-(6,7-dihydro-5H-pyrrolo[2,1-c][1,2,4]triazol-3-yl)pyrazin-2-yl)oxy)methyl)-3-(4-fluorophenyl)-5-methylisoxazole], the Ki in series [1] turned out to be 3.06 nM. Moreover, in series [2], the “Selectivity α2 ki/α5 ki” value is on record as 90.2 folds. In series [3] (setting [4]), the solubility (thermodynamic) at 4 h was 39.6 µg/mL (≈ 101 µM).

For the molecule `Cc1onc(-c2ccc(F)cc2)c1COc1cnc(-c2nnc3n2CCCOC3)cn1` [Compound 24, 3-(5-((3-(4-fluorophenyl)-5-methylisoxazol-4-yl)methoxy)pyrazin-2-yl)-6,7-dihydro-5H,9H-[1,2,4]triazolo[3,4-c][1,4]oxazepane], affinity in series [1] was put at a Ki of 6.75 nM. Moreover, the “Selectivity α2 ki/α5 ki” value in series [2] was determined as 39.2 folds. The molecule also returned a thermodynamic solubility at 4 h in series [3] (simulated intestinal fluid FaSSIF, pH 7.4, thermodynamic from solid) of 18.3 µg/mL (≈ 43.3 µM).

On to `Cc1onc(-c2ccc(F)cc2)c1COc1cnc(-c2nnc3n2CCOCC3)cn1` [Compound 33, 3-(5-((3-(4-fluorophenyl)-5-methylisoxazol-4-yl)methoxy)pyrazin-2-yl)-5,6,8,9-tetrahydro-[1,2,4]triazolo[4,3-d][1,4]oxazepane], for which, in series [1], the Ki is 9.74 nM. Further, the “Selectivity α2 ki/α5 ki” value in series [2] was found to be 86.7 folds. Further, the thermodynamic solubility at 4 h in series [3] (setting [4]) was 39.5 µg/mL (≈ 93.5 µM).

Regarding `Cc1onc(-c2ccc(F)cc2)c1COc1ccc(N2CCn3ccnc3C2=O)nn1` [Compound 37, 7-(6-((3-(4-fluorophenyl)-5-methylisoxazol-4-yl)methoxy)pyridazin-3-yl)-6,7-dihydroimidazo[1,2-a]pyrazin-8(5H)-one], in series [1], the affinity, expressed as Ki, was 5.37 nM. Moreover, in series [2], the “Selectivity α2 ki/α5 ki” value is reported as 48.6 folds. Besides, the thermodynamic solubility at 4 h in series [3] (setting [4]) was 60.2 µg/mL (≈ 143 µM).

With `Cc1onc(-c2ccc(F)cc2)c1COc1ccc(-c2cc3n(c(=O)n2)C[C@]24CO[C@H](CN32)C4)cn1` [Compound 38], the Ki in series [1] turned out to be 2.24 nM. Besides, the “Selectivity α2 ki/α5 ki” value in series [2] is on record as 122.2 folds.

`Cc1onc(-c2ccc(F)cc2)c1COc1ccc(-c2cc3n(c(=O)n2)CCN3C)cn1` [Compound 41, 7-(6-((3-(4-fluorophenyl)-5-methylisoxazol-4-yl)methoxy)pyridin-3-yl)-1-methyl-2,3-dihydroimidazo[1,2-c]pyrimidin-5(1H)-one]: the Ki in series [1] was determined as 0.99 nM. Besides, the “Selectivity α2 ki/α5 ki” value in series [2] is 75.8 folds.

The record behind these values is US20250215016A1, “ISOXAZOLE-HETEROCYCLIC DERIVATIVE, PHARMACEUTICAL COMPOSITION AND USE” (SHANGHAI SIMR BIOTECHNOLOGY CO., LTD, priority 2022, published 2025).
